According to patent US12012411B2, “Viral replication inhibitors” (Katholieke Universiteit Leuven, priority 2011, dated 2024):

Experiments:
[1] = test system: DENV-2 NGC; assay: Antiviral activity against DENV-2 NGC in Vero-B cells (viral RNA load by RT-qPCR); format: cell-based, Dengue virus; details: Dengue virus, DENV2, Vero B, DENV-2 in Vero-B cells; inhibition of viral RNA replication by 50% (Table 3)
[2] = in vitro; details: African green monkey; for CC50 at 4 days: uninfected quiescent Vero-B cells

Row | SMILES | EC50 [1] [µM] | CC50 at 4 days [2] [µM] | CC50 [2] [µM]
1 | COc1cc(NC(C(=O)c2cn(C)c3ccccc23)c2ccccc2)ccn1 (stereo not shown) [CPD-100] | 12 | 42 | –
2 | COc1cc(NC(C(=O)c2c[nH]c3c(Cl)cccc23)c2ccccc2)ccn1 (stereo not shown) [CPD-101] | 4.9 | 11 | –
3 | COc1cccc(NC(C(=O)c2c[nH]c3ccccc23)c2cc(C)no2)c1 (stereo not shown) [CPD-102] | 0.62 | 65 | –
4 | COc1cccc(NC(C(=O)c2cn(CCN)c3ccccc23)c2ccccc2)c1 (stereo not shown) [CPD-105] | 1.23 | – | 14
5 | COc1cccc(NC(C(=O)c2cn(CC(=O)O)c3ccccc23)c2ccccc2)c1 (stereo not shown) [CPD-106] | 8.93 | – | > 120
6 | CCn1nccc1C(Nc1cccc(OC)c1)C(=O)c1c[nH]c2ccccc12 (stereo not shown) [CPD-107] | 7.88 | 20 | –
7 | COc1cccc(NC(C(=O)c2c[nH]c3ccccc23)c2cn3c(F)cccc3n2)c1 (stereo not shown) [CPD-109] | 0.53 | 84 | –
8 | COc1cccc(NC(C(=O)c2c[nH]c3ccccc23)c2cn3cc(F)ccc3n2)c1 (stereo not shown) [CPD-110] | 0.58 | 73 | –
9 | COc1cccc(NC(C(=O)c2cn(S(C)(=O)=O)c3ccccc23)c2ccccc2)c1 (stereo not shown) [CPD-111] | 0.44 | > 115 | –
10 | COc1cccc(NC(C(=O)c2c[nH]c3ccccc23)c2ccc(COCN(C)C)cc2)c1 (stereo not shown) [CPD-112] | 3.27 | 12 | –
11 | CCOC(=O)Cn1cc(C(=O)C(Nc2cccc(OC)c2)c2ccccc2)c2ccccc21 (stereo not shown) [CPD-113] | 0.49 | – | > 112
12 | COc1cccc(NC(C(=O)c2cn(CCN(C)C)c3ccccc23)c2ccccc2)c1 (stereo not shown) [CPD-114] | 1.1 | – | 52
13 | COc1cccc(N2C(=O)CN(C)n3cc(c4ccccc43)C(=O)C2c2ccccc2)c1 (stereo not shown) [CPD-115] | 10.6 | 49 | –
14 | COc1cccc(NC(C(=O)c2cn(C)c3ccccc23)c2cc(C)on2)c1 (stereo not shown) [CPD-117] | 3.57 | > 133 | –
15 | COc1cc(NC(C(=O)c2cn(S(C)(=O)=O)c3ccccc23)c2ccccc2)ccn1 (stereo not shown) [CPD-121] | 5.76 | 60 | –
16 | COc1cccc(NC(C(=O)c2c[nH]c3ccccc23)c2ccc(CN(C)C)cc2)c1 (stereo not shown) [CPD-124] | 0.56 | 3 | –
17 | COc1cccc(NC(C(=O)c2c[nH]c3ccccc23)c2[nH]cnc2C)c1 (stereo not shown) [CPD-125] | 7.19 | > 138 | –
18 | COc1cccc(NC(C(=O)c2c[nH]c3ccccc23)c2ccc(CO)cc2)c1 (stereo not shown) [CPD-127] | 2.15 | 72 | –
19 | COc1cccc(NC(C(=O)c2c[nH]c3ccc(S(=O)(=O)N(C)C)cc23)c2ccccc2)c1 (stereo not shown) [CPD-129] | 1.09 | > 108 | –
20 | COc1cccc(NC(C(=O)c2c[nH]c3ccccc23)c2ccc(C#N)c(F)c2)c1 (stereo not shown) [CPD-132] | 0.05 | 12 | –
21 | COc1cccc(NC(C(=O)c2c[nH]c3cc(O)ccc23)c2ccccc2)c1 (stereo not shown) [CPD-134] | 0.46 | 49 | –
22 | COc1cccc(NC(C(=O)c2c[nH]c3cc(C(=O)O)ccc23)c2ccccc2)c1 (stereo not shown) [CPD-135] | 40.7 | > 124 | –
23 | COCCn1cc(C(=O)C(Nc2cccc(OC)c2)c2ccccc2)c2ccccc21 (stereo not shown) [CPD-136] | 0.22 | – | > 120
24 | COc1cccc(NC(C(=O)c2c[nH]c3cc(CO)ccc23)c2ccccc2)c1 (stereo not shown) [CPD-140] | 2.15 | 53 | –

Row | SMILES | EC50 [1] [µM] | CC50 at 4 days [2] [µM] | CC50 [2] [µM]
25 | CNC(=O)c1cccc(NC(C(=O)c2c[nH]c3ccccc23)c2ccccc2)c1 (stereo not shown) [CPD-170] | 0.44 | 26 | –
26 | CC(=O)Nc1cccc(NC(C(=O)c2c[nH]c3ccccc23)c2ccccc2)c1 (stereo not shown) [CPD-174] | 10.1 | 61 | –
27 | O=C(c1c[nH]c2ccccc12)C(Nc1cccc(CO)c1)c1ccccc1 (stereo not shown) [CPD-179] | 5.3 | 135 | –
28 | CC(NC(C(=O)c1c[nH]c2ccccc12)c1ccccc1)c1ccco1 (stereo not shown) [CPD-180] | 57 | > 145 | –
29 | O=C(c1c[nH]c2ccccc12)C(Nc1cccc(N2CCCC2=O)c1)c1ccccc1 (stereo not shown) [CPD-181] | 4.22 | > 122 | –
30 | O=C(c1c[nH]c2ccccc12)C(NC1CCOc2ccccc21)c1ccccc1 (stereo not shown) [CPD-182] | 3.01 | 12 | –
31 | CCCN1CCC(NC(C(=O)c2c[nH]c3ccccc23)c2ccccc2)CC1 (stereo not shown) [CPD-184] | 22.4 | 70 | –
32 | CCc1cccc2c(C(=O)C(Nc3ccc(NC(=O)CN4CCOCC4)cc3)c3ccccc3)c[nH]c12 (stereo not shown) [CPD-186] | 4.35 | 40 | –
33 | NS(=O)(=O)c1cccc(NC(C(=O)c2c[nH]c3ccccc23)c2ccccc2)c1 (stereo not shown) [CPD-187] | 3.18 | 58 | –
34 | CN(Cc1ccco1)C(C(=O)c1c[nH]c2ccccc12)c1ccccc1 (stereo not shown) [CPD-189] | 0.93 | > 145 | –
35 | O=C(c1c[nH]c2ccccc12)C(NCC1COc2ccccc2O1)c1ccccc1 (stereo not shown) [CPD-190] | 1.71 | 11 | –
36 | O=C(c1c[nH]c2ccccc12)C(NC1CCSc2ccccc21)c1ccccc1 (stereo not shown) [CPD-191] | 2.58 | 13 | –
37 | CCOc1ccc(NC(C(=O)c2c[nH]c3ccccc23)c2ccccc2)cc1CO (stereo not shown) [CPD-192] | 5.62 | 50 | –
38 | COc1cccc(NC(C(=O)c2c[nH]c3cccnc23)c2ccccc2)c1 (stereo not shown) [CPD-195] | 12.7 | 65 | –
39 | COc1cccc(NC(C(=O)c2cnc3ccccn23)c2ccccc2)c1 (stereo not shown) [CPD-196] | 62.6 | > 139 | –
40 | COc1cccc(NC(C(=O)c2cnn3ccccc23)c2ccccc2)c1 (stereo not shown) [CPD-197] | 3.3 | > 139 | –
41 | COc1cccc(NC(C(=O)c2n[nH]c3ccccc23)c2ccccc2)c1 (stereo not shown) [CPD-198] | 0.14 | 16 | –
42 | COc1cc(NC(C(=O)c2csc3ccccc23)c2cn3ccccc3n2)ccn1 (stereo not shown) [CPD-199] | 24.9 | > 120 | –
43 | COc1cccc(NC(C(=O)c2c[nH]c3cnccc23)c2ccccc2)c1 (stereo not shown) [CPD-200] | 2.24 | 54 | –
44 | COc1cccc(NC(C(=O)c2c[nH]c3ccncc23)c2ccccc2)c1 (stereo not shown) [CPD-201] | 12.2 | 74 | –
45 | COc1cccc(NC(C(=O)c2csc3c2CCN(C)C3)c2ccccc2)c1 (stereo not shown) [CPD-202] | 8.33 | 104 | –
46 | O=C(c1c[nH]c2ccccc12)C(Nc1ccnc(F)c1)c1ccccc1 (stereo not shown) [CPD-207] | 3.83 | 16 | –
47 | COc1cccc(NC(C(=O)c2cn(S(=O)(=O)c3cn(C)cn3)c3ccccc23)c2ccccc2)c1 (stereo not shown) [CPD-209] | 1.12 | > 100 | –
48 | CCS(=O)(=O)n1cc(C(=O)C(Nc2cccc(OC)c2)c2ccccc2)c2ccccc21 (stereo not shown) [CPD-211] | 2.83 | > 111 | –

Row | SMILES | EC50 [1] [µM] | CC50 at 4 days [2] [µM] | CC50 [2] [µM]
49 | COc1cccc(NC(C(=O)c2c[nH]c3ccccc23)c2cccnc2OC)c1 (stereo not shown) [CPD-215] | 0.16 | 14 | –
50 | COc1cccc(NC(C(=O)c2cn(CCN3CCOCC3)c3ccccc23)c2ccccc2)c1 (stereo not shown) [CPD-216] | 0.84 | – | > 106
51 | COc1cccc(NC(C(=O)c2cn(S(=O)(=O)C3CCNCC3)c3ccccc23)c2ccccc2)c1 (stereo not shown) [CPD-217] | 0.25 | 11 | –
52 | COc1cc(NC(C(=O)c2c[nH]c3ccccc23)c2ccccc2)ccc1C#N (stereo not shown) [CPD-218] | 2.39 | 13 | –
53 | COc1cccc(NC(C(=O)c2nn(C)c3c2CNCC3)c2ccccc2)c1 (stereo not shown) [CPD-221] | 29.3 | 80 | –
54 | COc1cccc(NC(C(=O)c2nn(C)c3c2CN(C)CC3)c2ccccc2)c1 (stereo not shown) [CPD-223] | 58 | > 128 | –
55 | COc1cccc(NC(C(=O)c2c[nH]c3c(C)cccc23)c2ccccc2)c1 (stereo not shown) [CPD-224] | 0.05 | > 134 | –
56 | COc1cccc(NC(C(=O)c2c[nH]c3ccc(CN(C)C)cc23)c2ccccc2)c1 (stereo not shown) [CPD-228] | 1.62 | 13 | –
57 | COc1cccc(NC(C(=O)c2c[nH]c3cccc(OC)c23)c2ccccc2)c1 (stereo not shown) [CPD-231] | 1.22 | 18 | –
58 | COc1cccc(NC(C(=O)c2c[nH]c3ccccc23)c2ccc(N(C)C)nc2)c1 (stereo not shown) [CPD-239] | 22.7 | > 125 | –
59 | CCOc1cncc(NC(C(=O)c2c[nH]c3ccccc23)c2ccccc2)c1 (stereo not shown) [CPD-246] | 0.32 | 16 | –
60 | CC(C)Oc1cncc(NC(C(=O)c2c[nH]c3ccccc23)c2ccccc2)c1 (stereo not shown) [CPD-247] | 0.42 | 15 | –
61 | CCc1cncc(NC(C(=O)c2c[nH]c3ccccc23)c2ccccc2)c1 (stereo not shown) [CPD-248] | 0.56 | 15 | –
62 | CCOc1ccc(C(Nc2cccc(OC)c2)C(=O)c2c[nH]c3ccccc23)cn1 (stereo not shown) [CPD-250] | 0.22 | 15 | –
63 | COc1cccc(NC(C(=O)c2c[nH]c3cccc(C)c23)c2ccccc2)c1 (stereo not shown) [CPD-251] | 0.07 | 14 | –
64 | COc1cc(NC(C(=O)c2c[nH]c3ccccc23)c2ccccc2)cnc1N(C)C (stereo not shown) [CPD-257] | 0.45 | 17 | –
65 | COc1cncc(NC(C(=O)c2nn(C)c3ccccc23)c2ccccc2)c1 (stereo not shown) [CPD-259] | 0.54 | 14 | –
66 | CNc1ncc(NC(C(=O)c2c[nH]c3ccccc23)c2ccccc2)cc1OC (stereo not shown) [CPD-261] | 0.39 | 15 | –
67 | COc1cc(CN(C)C)cc(NC(C(=O)c2c[nH]c3ccccc23)c2ccccc2)c1 (stereo not shown) [CPD-263] | 2.18 | 13 | –
68 | COc1cccc(NC(C(=O)c2nn(C)c3ccccc23)c2ccc(OC)nc2)c1 (stereo not shown) [CPD-264] | 0.51 | > 124 | –
69 | COc1cccc(NC(C(=O)c2c[nH]c3ccccc23)c2cc(C)n(C)n2)c1 (stereo not shown) [CPD-267] | 1.3 | 79 | –
70 | COc1cccc(NC(C(=O)c2c[nH]c3ccccc23)c2ccc(OC(C)C)nc2)c1 (stereo not shown) [CPD-268] | 0.46 | 15 | –
71 | O=C(c1c[nH]c2ccccc12)C(Nc1cncc(OC(F)F)c1)c1ccccc1 (stereo not shown) [CPD-269] | 0.48 | 13 | –
